In patent publication EP1379634B1 (THE UNIVERSITY OF GEORGIA RESEARCH FOUNDATION, INC., priority 2001, dated 2002):
Residues, ends and D or L forms follow the SMILES beside them. *: point of attachment. Cbz = O=C(OCc1ccccc1)*; CH2F = FC*

Legend:
[1] = molecular target: Cathepsin L (Homo sapiens, UniProt P07711); test: Selectivity test (Steps VI and IX), Cathepsin L; assay type: biochemical; settings: pH 5.5, substrate Z-FR-AFC
Experimental: In order to perform the assay, the vehicle (for Step VI) or inhibitor (for Step IX) were incubated with the appropriate substrate in the correct assay buffer and allowed to equilibrate. Subsequently, the protease was added, and the assay was allowed to incubate for an appropriate time. The concentrations used in this experiment were as follows: Vehicle was set up at 4 X 10^-5 M in final assay buffer; Inhibitor was set up at 3 X 10^-10 M in the final assay buffer. Preferably the dosages employed should be the minimal amount of vehicle or inhibitor necessary to induce inhibition. […] Substrates were set up based upon the preferred substrate for cleavage of the particular enzyme.
Positive controls were set up similarly as described for test controls, except that a solvent blank was added in substitution for the inhibitor or vehicle (in a volume equal to the volume of inhibitor or vehicle addition). All of the inhibitors and vehicles could be dissolved in dimethylsulfoxide (DMSO), and therefore, this was the solvent of choice. Negative controls were set up by adding the inhibitor or vehicle and the preferred substrates in a tube without the protease. All potential non-proteolytic liberation of AFC was therefore controlled for in this tube.
All controls were set up in triplicate, and experiments were repeated a minimum of five times.
Percent inhibition was calculated as: %Inhibition = ((AFC positive for "SI"−AFC negative for "SI")−(AFC test−AFC negative for "SI"))/(AFC positive for "SI"−AFC negative for "SI") × 100 [formula]
In this preliminary test, we employed the following human-derived enzymes (with indicated mechanistic class in parentheses): Cathepsin B (cysteine), Cathepsin L (cysteine), Cathepsin H (cysteine), Cathepsin D (aspartic), Trypsin (serine), the purified Taenia solium cysteine protease, and the Taenia solium crude mix. Cathepsin B was prepared in an assay buffer of 10 mM L-cysteine in 0.4 M Citrate buffer, pH 6.1, using Z-ARR-AFC as the cleavage substrate. Cathepsin L was prepared in an assay buffer of 10 mM L-cysteine in 0.4 M Citrate buffer, pH 5.5, using Z-FR-AFC as the cleavage substrate. Cathepsin H was prepared in an assay buffer of 10 mM L-cysteine in 0.15 M PBS buffer, pH 6.8, using L-R-AFC as the cleavage substrate. Cathepsin D was prepared in an assay buffer of 0.15 M PBS, pH 7.1, using Z-RGFFP-AFC as the cleavage substrate. Trypsin was prepared in an assay buffer of 0.15 M PBS, pH 8.0, supplemented with 100 mM CaCl2 and with Z-R-AFC as the cleavage substrate. Enzyme was incubated so that it was at least 50 times less than the concentration of substrate in order to insure saturating conditions.

[2] = system: purified Taenia solium cysteine protease; test: Protease inactivator inhibition assay against cocktail, EC100 and Ki (Step VII); assay type: biochemical
Excerpt: Once the protease inactivators were synthesized in the organic laboratory, they were to be tested for the lowest efficacious concentrations at which they induced 100% inhibition of the target protease (EC100). The top percent cocktail that was employed in the final vehicle selection step of Step III was employed as the source of competition for the inhibitors. In this case, this was the 7.9% cocktail that was comprised of Z-FR-AFC, Z-FAR-AFC, Z-AP-AFC, Z-AAK-AFC, and Z-VLR-AFC. The final result would be a ranking of transition state candidate protease inactivators with a high ranking directly correlating to a low EC100 value. The following steps describe the assay: • Step A: Initial Screening. To set up the test control, each protease inactivator was first incubated with the 5% cocktail (which provided the final differentiation of vehicles in Step III). To begin with, the protease inactivator was incubated at a concentration of 3 X 10^-9M in 500 ul of assay buffer (0.2 M Citrate, pH 4.9, supplemented with 10mM L-cysteine). This concentration was determined by a series of inhibitor dilutions to be the best inhibitor concentration at which a differentiation in inhibitor potential could be noted. Next, a concentration equal to 4 X 10^-5M for each of the individual cocktail components, was added to the mix. The components were allowed to equilibrate for a period of 30 minutes. Finally, active purified enzyme was added to the tubes at a concentration which was always at least 50 times less than the concentration of the lowest concentration in the mix (so as to provide saturating conditions.) This concentration varied from purification to purification, and the amount that was added depended upon the yield and specific activity of the purified protease. Positive controls were set up similarly as described for test controls, except that solvent was added in substitution for the protease inactivator (in a volume equal to the […] volume addition). All of the protease inactivators could be dissolved in dimethylsulfoxide (DMSO), and therefore, this was the solvent of choice. Negative controls were set up by adding the protease inactivator and the cocktail substrates in a tube, without the protease. All potential non-proteolytic induced liberation of AFC was therefore controlled for in this tube. All controls were set up in triplicate, and experiments repeated a minimum of five times. The assays were incubated at 37°C, overnight. Percent inhibition was calculated as: %Inhibition = ((AFC positive for "SI"−AFC negative for "SI")−(AFC test−AFC negative for "SI"))/(AFC positive for "SI"−AFC negative for "SI") × 100 [formula] • Step B: Inhibitor Dilution Studies and formation of a ranked list of protease inactivators based upon EC100 values. […] Because of this, a dilution study was required in order to determine a viable ranking. Thus, the concentration of each of the protease inactivators was lowered with a dose response setup until the most efficacious concentration for 100% inhibition (EC100) could be determined. The inhibitors had to be diluted to nanomolar levels in order to establish a differentiable EC100 pattern. The final result of the assay was a ranked candidate list of protease inactivators. A lower EC100 was attributable to a higher ranking and vice-versa. • Step C: Determination of Inhibitor Ki and mode of inhibition, and re-ranking of EC100 list with inhibitor Ki. Ki of each of the top ranked protease inactivators, based upon low EC100 values, was assessed next for the top 5 EC100 inhibitors.
In order to determine Ki, all of the high Vmax cocktail substrates were employed for Ki determination (since Ki of the inhibitor for the enzyme is the same regardless of the substrate). To insure the highest accuracy, Ki was to be determined upon a minimum of at least three of the high Kcat substrates. Nonlinear fitting and the Dixon plot were both employed to determine Ki of the top ranked protease inactivators. […]

Chain of Cathepsin L (P07711 114-333): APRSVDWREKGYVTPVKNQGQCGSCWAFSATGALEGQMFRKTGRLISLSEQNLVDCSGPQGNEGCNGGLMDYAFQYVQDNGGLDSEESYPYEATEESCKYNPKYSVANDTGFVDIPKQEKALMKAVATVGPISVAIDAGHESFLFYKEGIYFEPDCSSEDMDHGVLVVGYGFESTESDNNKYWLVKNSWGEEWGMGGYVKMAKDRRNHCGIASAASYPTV

| Compound | % inhibition ([1]; vehicle 4 X 10^-5 M) | % inhibition ([1]; vehicle 4 X 10^-5 M, 40 µM) | % Inhibition of T. solium CP in vitro ([2]; concentration not stated in Table 4) | ranking by EC100 ([2]; dilution study, nanomolar levels) | % inhibition ([1]; inhibitor 3 X 10^-10 M, 0.0003 µM) |
| --- | --- | --- | --- | --- | --- |
| Mu-Leu-Tyr-AFC [Mu-LY-AFC] | 25% | subtle inhibition | – | – | – |
| CC(C)C[C@H](NC(=O)OCc1ccccc1)C(=O)N[C@@H](CC(C)C)C(=O)N[C@@H](Cc1ccc(O)cc1)C(=O)CF [Z-LLY-FMK, Z-Leu-Leu-Tyr-FMK] (Cbz-Leu-Leu-Tyr-CH2F) | – | – | 97% | top inhibitors | did not inhibit cathepsin L at all |
